Measured values as given in patent US6420330B1, “Use of quaternary carboxylic acid alkanolamine ester salts as microbicide agents” (Cognis Deutschland GmbH, priority 1997, dated 2002).

Columns and labels:
Assay in all cases: DGHM suspension test, microbicidal activity
Type in all cases: cell-based
[1] = tested on: Pseudomonas aeruginosa ATCC 15442
Method: (§1) The microbicidal activity of the quanterary carboxylic acid alkanolamine ester salts used in accordance with the invention was tested against the following selected test germs:
(§2) The effectiveness of the compound to be tested was determined by the suspension test in accordance with the guidelines of the Deutsche Gesellschaft for Hygiene and Mikrobiologie (DGHM). Test solutions containing quatemary carboxylic acid alkanolamine ester salts in the quantities shown in the Tables of 50, 100, 200, 400 and 800 mg/l were prepared using water with a hardness of 17° dH and optionally isopropanol.
(§3) At room temperatures, quantities of 0.1 ml test germ suspension were pipetted into test tubes containing 10 ml of the test solutions described above and mixed. After various contact times of 5, 15, 30 and 60 minutes, 1 ml of material was taken from the test tubes by pipette and transferred to 9 ml inactivator solution (inactivators: 3.0% Tween, 0.3% lecithin, 0.1% histidine). After in activation for at least 5 and at most 30 minutes, the living germ count was determined by plating out onto casein peptone-soybean flour peptone (CaSo)-agar plates. Using a spiral plater, the inactivating mixture was directly plated out onto CaSo-agar. The samples were incubated for 24 to 72 hours at 37° C. and macroscopically evaluated for growth. The destruction time or the residual germ count was determined in this way. The germ count of an unchallenged water control is related to the germ count of the inactivated test solution taking the dilution into account. The higher the value, the better the microbicidal effect. The symbol < means that the logarithmic reductuon factor is below the indicated value or, in the case of the symbol >, above the indicated value. The abbreviation CU stands for “concentration used”.

[2] = tested on: Staphylococcus aureus ATCC 6538
Method: as §1, §2, §3

[3] = tested on: Candida albicans ATCC 10231
Method: as §1, §2, §3

[4] = CU 50 mg/l, contact time 5 mins.
[5] = CU 50 mg/l, contact time 15 mins.
[6] = CU 50 mg/l, contact time 30 mins.
[7] = CU 50 mg/l, contact time 60 mins.
[8] = CU 100 mg/l, contact time 5 mins.
[9] = CU 100 mg/l, contact time 15 mins.
[10] = CU 100 mg/l, contact time 30 mins.
[11] = CU 100 mg/l, contact time 60 mins.
[12] = CU 200 mg/l, contact time 5 mins.
[13] = CU 200 mg/l, contact time 15 mins.
[14] = CU 200 mg/l, contact time 30 mins.
[15] = CU 200 mg/l, contact time 60 mins.
[16] = CU 400 mg/l, contact time 5 mins.
[17] = CU 400 mg/l, contact time 15 mins.
[18] = CU 400 mg/l, contact time 30 mins.
[19] = CU 400 mg/l, contact time 60 mins.
[20] = CU 800 mg/l, contact time 5 mins.
[21] = CU 800 mg/l, contact time 15 mins.
[22] = CU 800 mg/l, contact time 30 mins.
[23] = CU 800 mg/l, contact time 60 mins.

`CCCCCCCCCC(=O)OCC[N+](C)(CCO)CCOC(=O)CCCCCCCCC.COS(=O)(=O)[O-]` [Example 6, methyl triethanolammonium dicapric acid ester methosulfate] was tested, and the logarithmic reduction factor [1, 4] was <1.85, the logarithmic reduction factor [1, 5] was <1.79 and the logarithmic reduction factor [1, 6] was <1.71. For the same compound, the logarithmic reduction factor [1, 7] was <1.81, the logarithmic reduction factor [1, 8] was <1.85 and the logarithmic reduction factor [1, 9] was <1.79. The logarithmic reduction factor [1, 10] was <1.71, the logarithmic reduction factor [1, 11] was 3.19 and the logarithmic reduction factor [1, 12] was <1.85. For the same compound, the logarithmic reduction factor [1, 13] was <1.79, the logarithmic reduction factor [1, 14] was 3.35 and the logarithmic reduction factor [1, 15] was 3.89. The logarithmic reduction factor [1, 16] was <1.85, the logarithmic reduction factor [1, 17] was <1.79 and the logarithmic reduction factor [1, 18] was 4.18. The logarithmic reduction factor [1, 19] was >5.81, the logarithmic reduction factor [1, 20] was <1.85 and the logarithmic reduction factor [1, 21] was 4.14. The logarithmic reduction factor [1, 22] was 4.76, the logarithmic reduction factor [1, 23] was >5.81 and the logarithmic reduction factor [2, 4] was 4.12. The logarithmic reduction factor [2, 5] was >5.73, the logarithmic reduction factor [2, 6] was >5.75 and the logarithmic reduction factor [2, 7] was >5.86. For the same compound, the logarithmic reduction factor [2, 8] was 4.58, the logarithmic reduction factor [2, 9] was >5.73 and the logarithmic reduction factor [2, 10] was >5.75. For the same compound, the logarithmic reduction factor [2, 11] was >5.86, the logarithmic reduction factor [2, 12] was 4.55 and the logarithmic reduction factor [2, 13] was >5.73. For the same compound, the logarithmic reduction factor [2, 14] was >5.75, the logarithmic reduction factor [2, 15] was >5.86 and the logarithmic reduction factor [2, 16] was 4.48. For the same compound, the logarithmic reduction factor [2, 17] was >5.73, the logarithmic reduction factor [2, 18] was >5.75 and the logarithmic reduction factor [2, 19] was >5.86. The logarithmic reduction factor [2, 20] was 5.44, the logarithmic reduction factor [2, 21] was >5.73 and the logarithmic reduction factor [2, 22] was >5.75. For the same compound, the logarithmic reduction factor [2, 23] was >5.86, the logarithmic reduction factor [3, 4] was <0.87 and the logarithmic reduction factor [3, 5] was 1.64. The logarithmic reduction factor [3, 6] was 1.93, the logarithmic reduction factor [3, 7] was 2.62 and the logarithmic reduction factor [3, 8] was 1.27. For the same compound, the logarithmic reduction factor [3, 9] was 3.03, the logarithmic reduction factor [3, 10] was 3.75 and the logarithmic reduction factor [3, 11] was 4.15. For the same compound, the logarithmic reduction factor [3, 12] was 1.24, the logarithmic reduction factor [3, 13] was 3.66 and the logarithmic reduction factor [3, 14] was >4.78. For the same compound, the logarithmic reduction factor [3, 15] was >4.67, the logarithmic reduction factor [3, 16] was 1.38 and the logarithmic reduction factor [3, 17] was 3.51. The logarithmic reduction factor [3, 18] was >4.78, the logarithmic reduction factor [3, 19] was >4.67 and the logarithmic reduction factor [3, 20] was 1.33. The logarithmic reduction factor [3, 21] was >4.87, the logarithmic reduction factor [3, 22] was >4.78 and the logarithmic reduction factor [3, 23] was >4.67.
With `CCCCCCCC(=O)OCC[N+](C)(CCOC(=O)CCCCCCC)CCOC(=O)CCCCCCC.COS(=O)(=O)[O-]` [Example 2, methyl triethanolammonium tricaprylic acid ester methosulfate] the logarithmic reduction factor [1, 4] was <1.38, the logarithmic reduction factor [1, 5] was <1.70 and the logarithmic reduction factor [1, 6] was 3.31. The logarithmic reduction factor [1, 7] was 3.98, the logarithmic reduction factor [1, 8] was <1.38 and the logarithmic reduction factor [1, 9] was 3.25. For the same compound, the logarithmic reduction factor [1, 10] was 3.75, the logarithmic reduction factor [1, 11] was 4.49 and the logarithmic reduction factor [1, 12] was 1.38. For the same compound, the logarithmic reduction factor [1, 13] was 3.95, the logarithmic reduction factor [1, 14] was 4.40 and the logarithmic reduction factor [1, 15] was >5.59. For the same compound, the logarithmic reduction factor [1, 16] was 4.08, the logarithmic reduction factor [1, 17] was >5.70 and the logarithmic reduction factor [1, 18] was >5.68. For the same compound, the logarithmic reduction factor [1, 19] was >5.59, the logarithmic reduction factor [1, 20] was 4.42 and the logarithmic reduction factor [1, 21] was >5.70. The logarithmic reduction factor [1, 22] was >5.68, the logarithmic reduction factor [1, 23] was >5.59 and the logarithmic reduction factor [2, 4] was 3.21. The logarithmic reduction factor [2, 5] was >5.38, the logarithmic reduction factor [2, 6] was >5.50 and the logarithmic reduction factor [2, 7] was >5.41. For the same compound, the logarithmic reduction factor [2, 8] was 3.54, the logarithmic reduction factor [2, 9] was >5.38 and the logarithmic reduction factor [2, 10] was >5.50. For the same compound, the logarithmic reduction factor [2, 11] was >5.41, the logarithmic reduction factor [2, 12] was 4.32 and the logarithmic reduction factor [2, 13] was >5.38. The logarithmic reduction factor [2, 14] was >5.50, the logarithmic reduction factor [2, 15] was >5.41 and the logarithmic reduction factor [2, 16] was >5.56. The logarithmic reduction factor [2, 17] was >5.38, the logarithmic reduction factor [2, 18] was >5.50 and the logarithmic reduction factor [2, 19] was >5.41. For the same compound, the logarithmic reduction factor [2, 20] was >5.56, the logarithmic reduction factor [2, 21] was >5.38 and the logarithmic reduction factor [2, 22] was >5.50. The logarithmic reduction factor [2, 23] was >5.41, the logarithmic reduction factor [3, 4] was 3.44 and the logarithmic reduction factor [3, 5] was >4.71. For the same compound, the logarithmic reduction factor [3, 6] was >4.82, the logarithmic reduction factor [3, 7] was >4.68 and the logarithmic reduction factor [3, 8] was >4.73. For the same compound, the logarithmic reduction factor [3, 9] was >4.71, the logarithmic reduction factor [3, 10] was >4.82 and the logarithmic reduction factor [3, 11] was >4.68. For the same compound, the logarithmic reduction factor [3, 12] was >4.73, the logarithmic reduction factor [3, 13] was >4.71 and the logarithmic reduction factor [3, 14] was >4.82. For the same compound, the logarithmic reduction factor [3, 15] was >4.68, the logarithmic reduction factor [3, 16] was >4.73 and the logarithmic reduction factor [3, 17] was >4.71. For the same compound, the logarithmic reduction factor [3, 18] was >4.82, the logarithmic reduction factor [3, 19] was >4.68 and the logarithmic reduction factor [3, 20] was >4.73. The logarithmic reduction factor [3, 21] was >4.71, the logarithmic reduction factor [3, 22] was <4.82 and the logarithmic reduction factor [3, 23] was >4.68.
